Earlier results, collected in patent EP0436316A1, “X-ray contrast media for prolonged opacification” (Sovak, Milos, priority 1989, dated 1991).

System: peritoneal surface
Conditions: barium sulfate spilled into the abdomen after a perforation

SMILES: O=S(=O)([O-])[O-].[Ba+2] [barium sulfate]
- mortality rate of barium peritonitis: ~50%
